Experimental data taken from US11427549B2, “Pyrimidinyloxy benzo-fused compounds as herbicides” (FMC Corporation, priority 2017, dated 2022).

Legend:
kochia (Kochia scoparia) [1] = assay: Test A preemergence, kochia; type: in vivo; details: Bassia scoparia, pre-emergence, 240 h, 0 to 100 scale (0 no effect, 100 complete control), read-out: Plant response rating, Kochia; for pest or weed control at 31 g/ha: 31 g ai/ha; for pest or weed control at 125 g/ha: 125 g ai/ha
kochia (Kochia scoparia) [2] = assay: Test A postemergence, kochia; type: in vivo; details: Bassia scoparia, post-emergence, 240 h, 0 to 100 scale (0 no effect, 100 complete control), read-out: Plant response rating, Kochia; for pest or weed control at 31 g/ha: 31 g ai/ha; for pest or weed control at 125 g/ha: 125 g ai/ha
[3] = test system: blackgrass (Alopecurus myosuroides); assay: Test A postemergence, blackgrass; type: in vivo; details: Alopecurus myosuroides, post-emergence, 240 h, 0 to 100 scale (0 no effect, 100 complete control), read-out: Plant response rating, Blackgrass; for pest or weed control at 31 g/ha: 31 g ai/ha; for pest or weed control at 125 g/ha: 125 g ai/ha
[4] = test system: pigweed (Amaranthus retroflexus); assay: Test A postemergence, pigweed; type: in vivo; details: Amaranthus retroflexus, post-emergence, 240 h, 0 to 100 scale (0 no effect, 100 complete control), read-out: Plant response rating, Pigweed; for pest or weed control at 31 g/ha: 31 g ai/ha; for pest or weed control at 125 g/ha: 125 g ai/ha
[5] = test system: galium (catchweed bedstraw, Galium aparine); assay: Test A postemergence, galium; type: in vivo; details: Galium, post-emergence, 240 h, 0 to 100 scale (0 no effect, 100 complete control), read-out: Plant response rating, Galium; for pest or weed control at 31 g/ha: 31 g ai/ha; for pest or weed control at 125 g/ha: 125 g ai/ha
[6] = test system: ragweed (common ragweed, Ambrosia elatior); assay: Test A postemergence, ragweed; type: in vivo; details: Ambrosia artemisiifolia, post-emergence, 240 h, 0 to 100 scale (0 no effect, 100 complete control), read-out: Plant response rating, Ragweed; for pest or weed control at 31 g/ha: 31 g ai/ha; for pest or weed control at 125 g/ha: 125 g ai/ha
corn (Zea mays) = assay: Test A postemergence, corn; type: in vivo; details: Zea mays, post-emergence, 240 h, 0 to 100 scale (0 no effect, 100 complete control); for Corn plant response rating (crop injury, 0 = no effect, 100 = complete kill) at 31 g/ha: 31 g ai/ha; for Corn plant response rating (crop injury, 0 = no effect, 100 = complete kill) at 125 g/ha: 125 g ai/ha
[7] = test system: ryegrass, Italian (Italian ryegrass, Lolium multiflorum); assay: Test A preemergence, ryegrass, Italian; type: in vivo; details: Lolium multiflorum, pre-emergence, 240 h, 0 to 100 scale (0 no effect, 100 complete control), read-out: Plant response rating, Ryegrass, Italian; for pest or weed control at 31 g/ha: 31 g ai/ha; for pest or weed control at 125 g/ha: 125 g ai/ha
[8] = test system: wheat (Triticum aestivum); assay: Test A postemergence, wheat; type: in vivo; details: Triticum aestivum, post-emergence, 240 h, 0 to 100 scale (0 no effect, 100 complete control), read-out: Plant response rating, Wheat; for plant injury at 31 g/ha: 31 g ai/ha; for plant injury at 125 g/ha: 125 g ai/ha
[9] = test system: ducksalad (Heteranthera limosa); assay: Test B flooded paddy test, ducksalad; details: Heteranthera limosa, read-out: Plant response rating, Ducksalad (0 to 100 scale, 0 is no effect, 100 is complete control)
[10] = test system: barnyardgrass (Echinochloa crus-galli); assay: Test A preemergence, barnyardgrass; type: in vivo; details: Echinochloa crus-galli, pre-emergence, 240 h, 0 to 100 scale (0 no effect, 100 complete control), read-out: Plant response rating, Barnyardgrass; for pest or weed control at 31 g/ha: 31 g ai/ha; for pest or weed control at 125 g/ha: 125 g ai/ha
[11] = test system: barnyardgrass (Echinochloa crus-galli); assay: Test A postemergence, barnyardgrass; type: in vivo; details: Echinochloa crus-galli, post-emergence, 240 h, 0 to 100 scale (0 no effect, 100 complete control), read-out: Plant response rating, Barnyardgrass; for pest or weed control at 31 g/ha: 31 g ai/ha; for pest or weed control at 125 g/ha: 125 g ai/ha
[12] = test system: ryegrass, Italian (Italian ryegrass, Lolium multiflorum); assay: Test A postemergence, ryegrass, Italian; type: in vivo; details: Lolium multiflorum, post-emergence, 240 h, 0 to 100 scale (0 no effect, 100 complete control), read-out: Plant response rating, Ryegrass, Italian; for pest or weed control at 31 g/ha: 31 g ai/ha; for pest or weed control at 125 g/ha: 125 g ai/ha
[13] = test system: ragweed (common ragweed, Ambrosia elatior); assay: Test A preemergence, ragweed; type: in vivo; details: Ambrosia artemisiifolia, pre-emergence, 240 h, 0 to 100 scale (0 no effect, 100 complete control), read-out: Plant response rating, Ragweed; for pest or weed control at 31 g/ha: 31 g ai/ha; for pest or weed control at 125 g/ha: 125 g ai/ha
[14] = test system: foxtail, green (green foxtail, Setaria viridis); assay: Test A preemergence, foxtail, green; type: in vivo; details: Setaria, pre-emergence, 240 h, 0 to 100 scale (0 no effect, 100 complete control), read-out: Plant response rating, Foxtail, Green; for pest or weed control at 31 g/ha: 31 g ai/ha; for pest or weed control at 125 g/ha: 125 g ai/ha
[15] = test system: pigweed (Amaranthus retroflexus); assay: Test A preemergence, pigweed; type: in vivo; details: Amaranthus retroflexus, pre-emergence, 240 h, 0 to 100 scale (0 no effect, 100 complete control), read-out: Plant response rating, Pigweed; for pest or weed control at 31 g/ha: 31 g ai/ha; for pest or weed control at 125 g/ha: 125 g ai/ha
[16] = test system: barnyardgrass (Echinochloa crus-galli); assay: Test B flooded paddy test, barnyardgrass; details: Echinochloa crus-galli, read-out: Plant response rating, Barnyardgrass (0 to 100 scale, 0 is no effect, 100 is complete control)
rice (Oryza sativa) = assay: Test B flooded paddy test, rice; details: Oryza sativa, read-out: Plant response rating, Rice (0 to 100 scale, 0 is no effect, 100 is complete control)

Structure (SMILES): O=C1O[C@H](CCCC(F)(F)F)c2c(Oc3ncc(Cl)cn3)cccc21 [Compound 3, (3R)-4-[(5-Chloro-2-pyrimidinyl)oxy]-3-(4,4,4-trifluorobutyl)-1-(3H)-isobenzofuranone]
- pest or weed control at 31 g/ha (kochia (Kochia scoparia) [1]): 80%
- pest or weed control at 125 g/ha (kochia (Kochia scoparia) [1]): 100%
- pest or weed control at 31 g/ha (kochia (Kochia scoparia) [2]): 90%
- pest or weed control at 125 g/ha (kochia (Kochia scoparia) [2]): 100%
- pest or weed control at 31 g/ha [3]: 80%
- pest or weed control at 125 g/ha [3]: 100%
- pest or weed control at 31 g/ha [4]: 100%
- pest or weed control at 125 g/ha [4]: 100%
- pest or weed control at 31 g/ha [5]: 100%
- pest or weed control at 125 g/ha [5]: 100%
- pest or weed control at 31 g/ha [6]: 10%
- pest or weed control at 125 g/ha [6]: 60%
- Corn plant response rating (crop injury, 0 = no effect, 100 = complete kill) at 31 g/ha (corn (Zea mays)): 50%
- Corn plant response rating (crop injury, 0 = no effect, 100 = complete kill) at 125 g/ha (corn (Zea mays)): 80%
- pest or weed control at 31 g/ha [7]: 70%
- pest or weed control at 125 g/ha [7]: 100%
- plant injury at 31 g/ha [8]: 60%
- plant injury at 125 g/ha [8]: 90%
- pest or weed control at 250 g/ha [9]: 90%
- pest or weed control at 31 g/ha [10]: 90%
- pest or weed control at 125 g/ha [10]: 100%
- pest or weed control at 31 g/ha [11]: 30%
- pest or weed control at 125 g/ha [11]: 90%
- pest or weed control at 31 g/ha [12]: 40%
- pest or weed control at 125 g/ha [12]: 100%
- pest or weed control at 31 g/ha [13]: 0%
- pest or weed control at 125 g/ha [13]: 0%
- pest or weed control at 31 g/ha [14]: 100%
- pest or weed control at 125 g/ha [14]: 100%
- pest or weed control at 31 g/ha [15]: 100%
- pest or weed control at 125 g/ha [15]: 100%
- pest or weed control at 250 g/ha [16]: 60%
- plant injury at 250 g/ha (rice (Oryza sativa)): 60%

Structure (SMILES): CCCC1OC(=O)Cc2cccc(Oc3ncc(Cl)cn3)c21 (stereo not drawn) [Compound 35, 8-[(5-Chloro-2-pyrimidinyl)oxy]-1,4-dihydro-1-propyl-3H-2-benzopyran-3-one]
- pest or weed control at 31 g/ha (kochia (Kochia scoparia) [1]): 0%
- pest or weed control at 125 g/ha (kochia (Kochia scoparia) [1]): 0%
- pest or weed control at 31 g/ha (kochia (Kochia scoparia) [2]): 20%
- pest or weed control at 125 g/ha (kochia (Kochia scoparia) [2]): 50%
- pest or weed control at 31 g/ha [3]: 10%
- pest or weed control at 125 g/ha [3]: 10%
- pest or weed control at 31 g/ha [4]: 30%
- pest or weed control at 125 g/ha [4]: 50%
- pest or weed control at 31 g/ha [5]: 10%
- pest or weed control at 125 g/ha [5]: 30%
- pest or weed control at 31 g/ha [6]: 0%
- pest or weed control at 125 g/ha [6]: 10%
- Corn plant response rating (crop injury, 0 = no effect, 100 = complete kill) at 31 g/ha (corn (Zea mays)): 0%
- Corn plant response rating (crop injury, 0 = no effect, 100 = complete kill) at 125 g/ha (corn (Zea mays)): 0%
- pest or weed control at 31 g/ha [7]: 0%
- pest or weed control at 125 g/ha [7]: 0%
- plant injury at 31 g/ha [8]: 0%
- plant injury at 125 g/ha [8]: 0%
- pest or weed control at 250 g/ha [9]: 0%
- pest or weed control at 31 g/ha [10]: 0%
- pest or weed control at 125 g/ha [10]: 10%
- pest or weed control at 31 g/ha [11]: 0%
- pest or weed control at 125 g/ha [11]: 0%
- pest or weed control at 31 g/ha [12]: 0%
- pest or weed control at 125 g/ha [12]: 0%
- pest or weed control at 31 g/ha [13]: 0%
- pest or weed control at 125 g/ha [13]: 0%
- pest or weed control at 31 g/ha [14]: 0%
- pest or weed control at 125 g/ha [14]: 10%
- pest or weed control at 31 g/ha [15]: 0%
- pest or weed control at 125 g/ha [15]: 10%
- pest or weed control at 250 g/ha [16]: 0%
- plant injury at 250 g/ha (rice (Oryza sativa)): 0%

Structure (SMILES): FC(F)(F)CCC1OCc2cccc(Oc3ncc(Cl)cn3)c21 (stereo not drawn) [Compound 8, 5-Chloro-2-[[1,3-dihydro-3-(3,3,3-trifluoropropyl)-4-isobenzofuranyl]oxy]pyrimidine]
- pest or weed control at 31 g/ha (kochia (Kochia scoparia) [1]): 20%
- pest or weed control at 125 g/ha (kochia (Kochia scoparia) [1]): 100%
- pest or weed control at 31 g/ha (kochia (Kochia scoparia) [2]): 80%
- pest or weed control at 125 g/ha (kochia (Kochia scoparia) [2]): 90%
- pest or weed control at 31 g/ha [3]: 30%
- pest or weed control at 125 g/ha [3]: 100%
- pest or weed control at 31 g/ha [4]: 100%
- pest or weed control at 125 g/ha [4]: 100%
- pest or weed control at 31 g/ha [5]: 30%
- pest or weed control at 125 g/ha [5]: 80%
- pest or weed control at 31 g/ha [6]: 10%
- pest or weed control at 125 g/ha [6]: 20%
- Corn plant response rating (crop injury, 0 = no effect, 100 = complete kill) at 31 g/ha (corn (Zea mays)): 10%
- Corn plant response rating (crop injury, 0 = no effect, 100 = complete kill) at 125 g/ha (corn (Zea mays)): 50%
- pest or weed control at 31 g/ha [7]: 10%
- pest or weed control at 125 g/ha [7]: 70%
- plant injury at 31 g/ha [8]: 0%
- plant injury at 125 g/ha [8]: 50%
- pest or weed control at 250 g/ha [9]: 100%
- pest or weed control at 31 g/ha [10]: 80%
- pest or weed control at 125 g/ha [10]: 100%
- pest or weed control at 31 g/ha [11]: 10%
- pest or weed control at 125 g/ha [11]: 50%
- pest or weed control at 31 g/ha [12]: 10%
- pest or weed control at 125 g/ha [12]: 50%
- pest or weed control at 31 g/ha [13]: 0%
- pest or weed control at 125 g/ha [13]: 10%
- pest or weed control at 31 g/ha [14]: 80%
- pest or weed control at 125 g/ha [14]: 100%
- pest or weed control at 31 g/ha [15]: 100%
- pest or weed control at 125 g/ha [15]: 100%
- pest or weed control at 250 g/ha [16]: 35%
- plant injury at 250 g/ha (rice (Oryza sativa)): 20%
